These results are taken from ChEMBL document CHEMBL4038299, “Nitroimidazoles: Molecular Fireworks That Combat a Broad Spectrum of Infectious Diseases” (J Med Chem, 2017).

Data set [1] deals with Trypanosoma cruzi. The data set is described as follows: Antiparasitic activity against Trypanosoma cruzi infected in human assessed as cure rate under chronic condition. It counts as functional.
For data set [2], the system named is Trypanosoma cruzi. The data set can be described thus: Antiparasitic activity against Trypanosoma cruzi infected in human assessed as cure rate under acute condition. It is filed as functional.
Data set [3] concerns Leishmania donovani. The data set is described as follows: Antileishmanial activity against Leishmania donovani LV9 amastigotes infected in mouse peritoneal macrophages after 72 hrs. It is filed as functional. The settings on record: LV9, 72 h.
Data set [4] relates to Leishmania donovani. The data set can be described thus: Antileishmanial activity against Leishmania donovani LV9 amastigotes infected in BALB/c mouse assessed as reduction in parasite burden at 200 mg/kg, po administered qd for 5 days. It is filed as functional. The note with it: 120 h.
The subject of the next data set is Bacteroides fragilis. The data set is described as follows: Antibacterial activity against Bacteroides fragilis ATCC 23745 after 24 hrs. It is filed as functional. The settings on record: ATCC 23745, 24 h.
A short description of data set [5]: Half life in plasma (unknown origin). It counts as ADME, cell-free.
In data set [6] the test system is Trichomonas vaginalis. The data set can be described thus: Antiparasitic activity against Trichomonas vaginalis clinical isolate after 48 hrs under aerobic conditions by inverted phase contrast microscopic analysis. It counts as functional.
The test system of data set [7] is Helicobacter pylori. The data set can be described thus: In vivo antibacterial activity against Helicobacter pylori infected in human administered bid for 7 days measured after 30 days post start of the treatment by endoscopic analysis. It counts as functional.
Data set [8] deals with Giardia intestinalis. The data set can be described thus: In vivo antiparasitic activity against Giardia lamblia infected in human assessed as median efficacy at 2 g administered in adults as single dose. It is filed as functional, Giardia duodenalis.
Data set [9] relates to Leishmania donovani. The data set is described as follows: Antileishmanial activity against Leishmania donovani LV9 amastigotes infected in po dosed BALB/c mouse assessed as reduction in parasite burden dosed on day 7 post-infection administered bid for 5 to 10 days. It counts as functional.
Data set [10] has as its system Leishmania donovani. The data set is described as follows: Antileishmanial activity against Leishmania donovani HU3 infected in po dosed BALB/c mouse administered for 5 consecutive days. It counts as functional.
In data set [11] the test system is Mycobacterium tuberculosis. The data set is described as follows: Antimycobacterial activity against Mycobacterium tuberculosis. It counts as functional.
Data set [12] concerns Leishmania donovani. The data set can be described thus: Antileishmanial activity against Leishmania donovani LV9 amastigotes infected in BALB/c mouse peritoneal macrophages after 72 hrs by resazurin-based fluorescence assay. It counts as functional. The note with it: LV9, 72 h.
Data set [13] has as its system Leishmania donovani. The data set is described as follows: Antileishmanial activity against Leishmania donovani LV9 promastigotes after 72 hrs by resazurin-based fluorescence assay. The note with it: LV9, 72 h. It is filed as functional. (Alamar Blue is a resazurin reagent that responds to reducing activity.)
For data set [14], the system named is Giardia intestinalis. The data set can be described thus: In vivo antiparasitic activity against Giardia lamblia infected in human assessed as median efficacy at 30 mg/kg administered in children as single dose. It counts as functional, Giardia duodenalis.
The subject of data set [15] is Helicobacter pylori. The data set can be described thus: Antibacterial activity against Helicobacter pylori after 72 hrs by E-test. It is filed as functional.
The next data set relates to Entamoeba histolytica. The data set can be described thus: Antiparasitic activity against Entamoeba histolytica clinical isolate after 24 hrs under anaerobic cinditions. It is filed as functional.
Data set [16] relates to Giardia intestinalis. The data set is described as follows: In vivo antiparasitic activity against Giardia lamblia infected in human at 2000 to 2400 mg administered as single dose. It is filed as functional, Giardia duodenalis.
Data set [17] has as its system Giardia intestinalis. The data set is described as follows: In vivo antiparasitic activity against Giardia lamblia infected in human at 250 mg administered 2 to 3 times per day daily for 5 to 10 days. It is filed as functional, Giardia duodenalis.
Data set [18] concerns Trichomonas vaginalis. The data set can be described thus: Antiparasitic activity against Trichomonas vaginalis BRIS/92/STDL/B7268 clinical isolate after 48 hrs under anaerobic condition. It is filed as functional.
Data set [19] concerns Helicobacter pylori. The data set is described as follows: Antibacterial activity against susceptible Helicobacter pylori. It counts as functional.
Data set [20] can be described thus: Drug excretion in po dosed human watery feces. The settings on record: in vivo. It is filed as ADME, organism-based.
Data set [21] is described as follows: Drug excretion in po dosed human feces. It counts as ADME, organism-based. The settings on record: in vivo.
The subject of data set [22] is Helicobacter pylori. The data set is described as follows: Antibacterial activity against resistant Helicobacter pylori. It counts as functional.
A further data set relates to Clostridioides difficile. The data set is described as follows: Antibacterial activity against Clostridium difficile. It is filed as functional.

≈ marks a conversion by molar mass, not a printed value.

For the compound `O=C(Cn1ccnc1[N+](=O)[O-])NCc1ccccc1` [BENZNIDAZOLE], the Activity in the data set with Trypanosoma cruzi [1] came to 8%; in the data set on Trypanosoma cruzi [2], 76%.

`CCCCCCCCCCCCCCCCOP(=O)([O-])OCC[N+](C)(C)C` [MILTEFOSINE] displayed an EC50 in the data set on Leishmania donovani [3] of 3300 nM.

On to `CSc1ccc(OCc2ncc([N+](=O)[O-])n2C)cc1` [FEXINIDAZOLE], for which the inhibition in vivo at 200 mg/kg with Leishmania donovani [4] was 98%.

In turn, `Cn1c([N+](=O)[O-])cnc1COc1ccc(S(C)(=O)=O)cc1` [FEXINIDAZOLE SULFONE] returned an EC50 in the data set with Leishmania donovani [3] of 5300 nM.

The compound `CCS(=O)(=O)CCn1c([N+](=O)[O-])cnc1C` [TINIDAZOLE] yielded an MIC against Bacteroides fragilis of 0.8 to 3.7 µM (≈ 0.198 to 0.915 µg/mL). In data set [5], the half-life fell in the range of 12 to 14 h. In the data set on Trichomonas vaginalis [6], this compound returned an MLC of 1015 µM (≈ 251 µg/mL). Also, the Activity with Helicobacter pylori [7] is reported as more than 90%. Besides, the Efficacy with Giardia intestinalis [8] was found to be 92%.

Turning to `Cc1ncc([N+](=O)[O-])n1CCc1ccncc1` [PANIDAZOLE], the MIC in the data set with Bacteroides fragilis was 0.8 to 3.7 µM (≈ 0.186 to 0.859 µg/mL).

As to `C[C@]1(COc2ccc(N3CCC(Oc4ccc(OC(F)(F)F)cc4)CC3)cc2)Cn2cc([N+](=O)[O-])nc2O1` [DELAMANID], in the data set on Leishmania donovani [3], the EC50 stood at 87 nM. Besides, in the data set with Leishmania donovani [9], the ED50 stood at 7.3 mg/kg and the ED90 was found to be 21.5 mg/kg.

Regarding `Cc1ncc([N+](=O)[O-])n1CC(O)CCl` (centres undefined) [ORNIDAZOLE], the minimal inhibitory concentration (MIC) against Bacteroides fragilis lay in the range of 0.8 to 3.7 µM (≈ 0.176 to 0.813 µg/mL). In addition, the Efficacy in the data set on Giardia intestinalis [8] is listed as 92 - 100%.

Turning to `C[C@]1(COc2ccc(OC(F)(F)F)cc2)Cn2cc([N+](=O)[O-])nc2O1`, the ED90 in the data set on Leishmania donovani [10] came to 3.7 mg/kg.

`O=[N+]([O-])c1cn2c(n1)OC[C@H](OCc1ccc(OC(F)(F)F)cc1)C2` had an MIC in data set [11] of more than 100 µM. In addition, the EC50 amounted to 930 nM in the data set with Leishmania donovani [12] and 160 nM in the data set on Leishmania donovani [13].

For `Cc1ncc([N+](=O)[O-])n1CC(C)O` (centres undefined) [SECNIDAZOLE], the Efficacy in the data set on Giardia intestinalis [14] and in the data set on Giardia intestinalis [8] was 80 - 100% throughout. The compound further gave an MIC in the data set on Bacteroides fragilis of 0.8 to 3.7 µM (≈ 0.148 to 0.685 µg/mL).

For `Cc1ncc([N+](=O)[O-])n1CCO` [METRONIDAZOLE], the MIC was not below 256 µg/mL in the data set on Helicobacter pylori [15], 12.5 to 25 µM (≈ 2.14 to 4.28 µg/mL) with Entamoeba histolytica, 0.25 to 2 µg/mL (≈ 1.46 to 11.7 µM) in the data set with Helicobacter pylori [19] and more than 8 µg/mL in the data set on Helicobacter pylori [22]. For the same compound, the Efficacy in the data set with Giardia intestinalis [16] worked out at 48%; in the data set with Giardia intestinalis [17], 88%. Also, the MLC with Trichomonas vaginalis [18] was determined as 4.25 µg/mL (≈ 24.8 µM); in the data set with Trichomonas vaginalis [6] it was 2618 µM (≈ 448 µg/mL). For the same compound, the Drug excretion in [20] was found to be 9.3 µg/g; in data set [21], 1.2 µg/g. In the data set on Clostridioides difficile, this compound registered an MIC90 of 0.2 to 2 µg/mL (≈ 1.17 to 11.7 µM).

For orientation: EC50 means the concentration that produces a half-maximal response. Low values mean greater potency, high ones weaker potency. Usually inhibition in vivo stands for the drop in the measured response relative to a control, in per cent. Broadly, the MIC is the lowest concentration found to suppress growth. What is called half-life is how long it takes for the measured level to halve. The low end stands for rapid decline, the high end for slow decline. Usually ED50 stands for the midpoint of the dose-response relation. By MIC90 is commonly meant an inhibitory concentration at the 90% level, which refers to growth in some studies and to a panel of isolates in others. The low end stands for greater potency, the high end for weaker potency.
